Results from the supplement of paper PMC10627819.

System: S. pneumoniae D39V
Assay: fitness (endpoint OD595 vs no drug) (fraction); higher = more growth
Summary of the method: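 Fitness was measured as bacterial growth in 384-well plates inoculated at OD595 0.01 (30 µl, or 55 µl for S. pneumoniae). Media were TSB, LB Lennox or CY, at 37 °C. OD595 was read every 30 min for 14 h and background-subtracted against the first reading. Fitness is OD595 at the transition into stationary phase divided by the robust mean of no-drug control wells, capped at 1.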
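Further: OD595 on entry to stationary phase over no-drug wells; at most 1.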

CC(=O)Oc1ccccc1C(=O)O [Acetylsalicylic acid] + O=C(O)[C@H]1/C(=C/CO)O[C@@H]2CC(=O)N21 [Clavulanic acid]
fitness
Details	first compound 250 µg/mL	first compound 500 µg/mL	first compound 1000 µg/mL
partner 0.5 µg/mL	0.954	0.967	0.696
partner 1 µg/mL	0.902	0.902	0.696
partner 2 µg/mL	0.884	0.819	0.596

CC(=O)Oc1ccccc1C(=O)O [Acetylsalicylic acid] + C[C@H]1COc2c(N3CCN(C)CC3)c(F)cc3c(=O)c(C(=O)O)cn1c23 [Levofloxacin]
fitness
Details	partner 0.1725 µg/mL	partner 0.2 µg/mL	partner 0.345 µg/mL	partner 0.4 µg/mL	partner 0.69 µg/mL	partner 0.8 µg/mL
first compound 250 µg/mL	0.992	0.92	0.954	0.868	0.671	0.673
first compound 500 µg/mL	≥ 1	0.929	0.9	0.898	0.692	0.653
first compound 1000 µg/mL	0.95	0.881	0.938	0.734	0.716	0.513

CC(=O)Oc1ccccc1C(=O)O [Acetylsalicylic acid] + CN(C)c1cc(NC(=O)CNC(C)(C)C)c(O)c2c1C[C@H]1C[C@H]3[C@H](N(C)C)C(O)=C(C(N)=O)C(=O)[C@@]3(O)C(O)=C1C2=O [Tigecycline]
fitness
Details	partner 0.325 µg/mL	partner 0.65 µg/mL	partner 1.3 µg/mL	partner 2.6 µg/mL
first compound 250 µg/mL	0.934	0.968	1	0.932
first compound 500 µg/mL	0.904	0.985	0.949	0.95
first compound 1000 µg/mL	0.797	0.763	0.803	0.718

CC(=O)Oc1ccccc1C(=O)O [Acetylsalicylic acid] + CCC(C)C1C(=O)NC(=C)C(=O)NC(C(=O)NC(CSCC(C(=O)N1)NC(=O)/C(=C/C)/NC(=O)C(C(C)CC)N)C(=O)NC2C(SCC(NC(=O)CNC(=O)C3CCCN3C2=O)C(=O)NC(CCCCN)C(=O)NC4C(SCC(NC(=O)CNC(=O)C(NC(=O)C(NC(=O)C(NC(=O)CNC4=O)C)CC(C)C)CCSC)C(=O)NC(CC(=O)N)C(=O)NC(CCSC)C(=O)NC(CCCCN)C(=O)NC5C(SCC6C(=O)NC(C(=O)NC(CSC(C(C(=O)N6)NC(=O)C(NC5=O)C)C)C(=O)NC(CO)C(=O)NC(C(C)CC)C(=O)NC(CC7=CN=CN7)C(=O)NC(C(C)C)C(=O)NC(=C)C(=O)NC(CCCCN)C(=O)O)CC8=CN=CN8)C)C)C)CC(C)C [Nisin]
fitness, main component drawn
Details	partner 0.4275 µg/mL	partner 0.855 µg/mL	partner 1.6 µg/mL	partner 1.71 µg/mL	partner 3.2 µg/mL	partner 6.4 µg/mL
first compound 250 µg/mL	0.994	0.711	0.0198	0.0841	0.0317	0.0271
first compound 500 µg/mL	0.974	0.715	0.0324	0.114	0.0227	0.0184
first compound 1000 µg/mL	–	0.526	0.0339	0.0989	0.0138	0.0153
